According to ChEMBL document CHEMBL1201862, “PubChem BioAssay data set” (2004):
Activity calls are given as the source filed them.

Columns and labels:
[1] = Artemis endonuclease inhibitor potency, dose response, biochemical, fluorescence intensity (AID 720701); format: functional;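 also: Artemis endonuclease enzyme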
[2] = Jurkat T cell cytotoxicity, dose response, cytotoxicity control for P. falciparum gametocyte viability project, luminescence (AID 1117277); format: functional, cell-based;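 also: potency reflects loss of cellular ATP meaning fewer viable cells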
[3] = P. falciparum late gametocyte killing, dose response, luminescence (AID 1117278); format: functional, cell-based;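 also: gametocytes exposed to compound for 24 hours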
Vero = experiment: cells; format: functional; settings: Chlorocebus sabaeus
[4] = HepG2 cell cytotoxicity, dose response, cytotoxicity control, ATP luminescence, cherry-pick, activator set 2 (AID 1053143); format: functional, cell-based
INS1 = experiment: beta cell apoptosis inhibitors, cytokine rescue, dose response, luminescence, retest (AID 449756); format: functional, cell-based; settings: Rattus norvegicus;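 also: cell death triggered by IL-1 beta plus TNF-alpha plus IFN-gamma mixture; protective hits raise ATP signal compared with cytokine alone wells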
[5] = cytotoxicity in OVCAR8 ovarian cancer cells, dose response, PAX8 project, cell-based, plate reader, dry powder samples (AID 743197); format: functional; settings: OVCAR-8
[6] = NIH:OVCAR-3 ovarian cancer cell cytotoxicity, dose response, PAX8 inhibitor project, plate reader, dry powder samples (AID 743044); format: functional, cell-based
Paired box protein Pax-8 = Paired box protein Pax-8 (Homo sapiens, UniProt Q06710); experiment: inhibitors of PAX8-driven TPO luciferase reporter, dose response, RMG-I cells, cherry-pick (AID 687027); format: functional, cell-based;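 also: luciferase reporter driven by Pax8 target thyroperoxidase promoter measured by SteadyGlo luminescence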
Sequence of Paired box protein Pax-8 (Q06710 whole entry): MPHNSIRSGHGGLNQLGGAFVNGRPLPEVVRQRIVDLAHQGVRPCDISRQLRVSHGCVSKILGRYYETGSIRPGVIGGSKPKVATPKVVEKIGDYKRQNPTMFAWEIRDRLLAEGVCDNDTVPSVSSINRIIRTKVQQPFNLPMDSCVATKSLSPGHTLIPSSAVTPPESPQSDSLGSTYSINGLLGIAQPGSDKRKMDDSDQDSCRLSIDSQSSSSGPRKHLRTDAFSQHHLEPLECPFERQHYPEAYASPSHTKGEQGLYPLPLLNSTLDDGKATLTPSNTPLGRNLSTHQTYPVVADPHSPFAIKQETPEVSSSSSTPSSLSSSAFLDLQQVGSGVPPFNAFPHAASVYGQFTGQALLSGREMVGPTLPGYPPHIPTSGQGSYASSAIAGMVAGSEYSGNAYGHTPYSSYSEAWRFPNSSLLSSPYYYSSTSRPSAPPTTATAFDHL

[7] = IGROV1 ovarian cancer cell cytotoxicity, dose response, PAX8 inhibitor project, plate reader, dry powder samples (AID 743043); format: functional, cell-based; settings: IGROV-1
[8] = IOSE-T80 ovarian epithelial cell cytotoxicity, dose response, cytotoxicity control for PAX8 inhibitor project, plate reader, dry powder samples (AID 743045); format: functional, cell-based
[9] = biological target: Endoplasmic reticulum aminopeptidase 1 (Homo sapiens, UniProt Q9NZ08); experiment: ERAP1 aminopeptidase inhibitors, dose response, biochemical, cherry-pick, set 2, plate reader (AID 743314)
Sequence of Endoplasmic reticulum aminopeptidase 1 (Q9NZ08 whole entry): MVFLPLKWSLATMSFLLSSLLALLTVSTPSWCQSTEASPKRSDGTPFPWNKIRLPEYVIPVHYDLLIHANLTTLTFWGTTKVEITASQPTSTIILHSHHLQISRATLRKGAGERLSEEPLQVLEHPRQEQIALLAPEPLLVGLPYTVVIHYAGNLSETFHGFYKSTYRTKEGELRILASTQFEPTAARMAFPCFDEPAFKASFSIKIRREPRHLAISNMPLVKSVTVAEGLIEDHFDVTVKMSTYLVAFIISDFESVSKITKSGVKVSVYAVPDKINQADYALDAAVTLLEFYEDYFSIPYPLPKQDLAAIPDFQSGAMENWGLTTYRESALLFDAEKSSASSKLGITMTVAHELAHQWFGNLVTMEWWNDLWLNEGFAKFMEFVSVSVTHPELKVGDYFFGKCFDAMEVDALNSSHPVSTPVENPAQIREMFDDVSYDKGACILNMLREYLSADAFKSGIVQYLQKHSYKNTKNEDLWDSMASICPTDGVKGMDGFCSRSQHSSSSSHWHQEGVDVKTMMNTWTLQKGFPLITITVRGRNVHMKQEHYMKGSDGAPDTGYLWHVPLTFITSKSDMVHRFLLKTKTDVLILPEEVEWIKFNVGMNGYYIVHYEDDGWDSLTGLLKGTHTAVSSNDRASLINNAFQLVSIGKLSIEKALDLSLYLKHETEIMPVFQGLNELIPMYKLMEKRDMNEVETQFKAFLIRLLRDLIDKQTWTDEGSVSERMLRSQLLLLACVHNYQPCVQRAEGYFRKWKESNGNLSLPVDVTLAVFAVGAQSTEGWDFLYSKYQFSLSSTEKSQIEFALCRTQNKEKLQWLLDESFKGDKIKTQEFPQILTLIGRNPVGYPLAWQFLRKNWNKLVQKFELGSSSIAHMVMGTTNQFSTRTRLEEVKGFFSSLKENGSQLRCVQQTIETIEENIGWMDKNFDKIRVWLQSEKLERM

Prothrombin = Prothrombin (Homo sapiens, UniProt P00734); experiment: Thrombin 1536 HTS Dose Response Confirmation. [Related pubchem assays: 1046 (Thrombin 1536 HTS; hits were confirmed in this assay)]; format: functional
[10] = HeLa 2N DNA content increase, dose response, cell-based, IC50 (AID 1117349); format: functional
[11] = HeLa 4N DNA content increase, dose response, cell-based, IC50 (AID 1117351); format: functional

For `COc1ccc(-c2nn(-c3ccccc3)cc2C(=O)Nc2nc(CC(C)=O)ns2)cc1`, the IC50 [1] was > 20 µM (inactive).

With `O=C(Cn1c(C(F)(F)F)nc2ccccc21)Nc1ccccc1C(=O)O` the IC50 [2] was > 83.3 µM (inactive) and the IC50 [3] was > 109 µM (inactive).

In the case of `COc1ccc2c(c1)c(/C=N/Nc1nc3ccccc3[nH]1)c(C)n2C`, the CC50 (Vero) was 13.4 µM (active), the AC50 [4] was 26 µM (active) and the AC50 (INS1) was 10.2 µM (active).

With `COc1ccc(S(=O)(=O)N(C)C[C@@H]2Oc3ccc(NC(=O)Nc4ccc(C(F)(F)F)cc4)cc3CC(=O)N([C@H](C)CO)C[C@@H]2C)cc1` the AC50 [5] was 22.1 µM (active), the AC50 [6] was 6.36 µM (active) and the AC50 (Paired box protein Pax-8) was 4.64 µM (active). The AC50 [7] was 16.8 µM (active) and the AC50 [8] was 13.8 µM (active).

In the case of `CN1[C@@H]2c3ccc(/C=C/c4ccccc4)c(=O)n3C[C@@H]2[C@@H](CO)[C@@H]1C(=O)NC1CCCC1`, the AC50 [9] was 17.5 µM (active).

With `COc1ccc(OC)c(S(=O)(=O)Nc2c(C)cccc2C)c1` the IC50 [2] was > 83.3 µM (inactive) and the IC50 [3] was > 109 µM (inactive).

With `COc1ccc(C(=O)n2nc(-c3ccco3)nc2N)cc1` the IC50 (Prothrombin) was 0.828 µM (active).

With `Cc1c(Cc2ccccc2)c(=O)oc2cc(O)ccc12` the AC50 [9] was 12.6 µM (active).

For `O=c1[nH]c(=O)n([C@H]2C[C@H](O)[C@@H](CO)O2)cc1I` [IDOXURIDINE], the IC50 [10] was > 10 µM (inactive) and the IC50 [11] was > 10 µM (inactive).

In the case of `CCC(C)n1ncn(-c2ccc(N3CCN(c4ccc(OC[C@H]5CO[C@](Cn6cncn6)(c6ccc(Cl)cc6Cl)O5)cc4)CC3)cc2)c1=O` (stereo not given in full) [ITRACONAZOLE], the IC50 [10] was > 10 µM (inactive) and the IC50 [11] was > 10 µM (inactive).
